Results: patent publication US4305944A, “N-[(4-[3-cyano substituted pyridyl]piperazino)alkyl]-azaspirodecanediones” (priority 1980, dated 1981)
Where two headings read alike, the source gives them in different places.

Columns and labels:
[1] = test system: fasted rat; assay: Test I: conditioned avoidance response (CAR), fasted rat treated orally (psychotropic); type: in vivo; conditions: for ED50: read-out: CAR-ED50
Method: I. CAR-ED50 (mg/kg. of body weight) fasted rat
treated orally (psychotropic).
Tests I and II refer to the conditioned avoidance response. […] Test I is a modification of the same conditioned avoidance response test except that fasted rats were employed and the animals were treated orally.

[2] = in vivo; conditions: mouse, po
Excerpt: (§3) AED-0.3 (mg/kg. of body weight) activity cage
mouse treated orally (CNS depression).
(§4) Test IV involves measurement of spontaneous motor activity of mice as a reflection of the CNS depressant or sedative side effects of the test compound. […] The AED-0.3 reflects approximately 50% reduction in spontaneous motor activity.

[3] = test system: fed rat; assay: Test II: conditioned avoidance response (CAR), fed rat treated intraperitoneally (psychotropic); type: in vivo; conditions: for ED50: ip, read-out: CAR-ED50; for activity in the conditioned avoidance response test (Test II): in words
Method: Tests I and II refer to the conditioned avoidance response. Data with respect to Test II were obtained by the method described in the above Wu, et al. patents and publications in which trained rats were maintained on a standard laboratory diet and were treated intraperitoneally with the test drug. Test I is a modification of the same conditioned avoidance response test except that fasted rats were employed and the animals were treated orally.

[4] = Test IV: spontaneous motor activity, activity cage mouse treated intraperitoneally (CNS depression); type: in vivo; conditions: in vivo, ip
Excerpt: (§5) AED-0.3 (mg/kg. of body weight) activity cage,
as §4

[5] = test system: rat; assay: rat catalepsy test; type: in vivo; conditions: for rat catalepsy test result: oral doses of 200 mg/kg.
Method: (§1) That dose of Compound No. 7, however, constituted the ALD50 dose for rats. In mice the ALD50 of Compound No. 7 was determined to be 500 mg/kg. of body weight.

[6] = target: T1, alpha-adrenergic receptor (Rattus norvegicus, UniProt P43140); assay: Test VII: alpha-adrenergic receptor blocking action in vitro, isolated rat seminal vesicle, 1-norepinephrine as spasmogen
T1 sequence (P43140 1-466): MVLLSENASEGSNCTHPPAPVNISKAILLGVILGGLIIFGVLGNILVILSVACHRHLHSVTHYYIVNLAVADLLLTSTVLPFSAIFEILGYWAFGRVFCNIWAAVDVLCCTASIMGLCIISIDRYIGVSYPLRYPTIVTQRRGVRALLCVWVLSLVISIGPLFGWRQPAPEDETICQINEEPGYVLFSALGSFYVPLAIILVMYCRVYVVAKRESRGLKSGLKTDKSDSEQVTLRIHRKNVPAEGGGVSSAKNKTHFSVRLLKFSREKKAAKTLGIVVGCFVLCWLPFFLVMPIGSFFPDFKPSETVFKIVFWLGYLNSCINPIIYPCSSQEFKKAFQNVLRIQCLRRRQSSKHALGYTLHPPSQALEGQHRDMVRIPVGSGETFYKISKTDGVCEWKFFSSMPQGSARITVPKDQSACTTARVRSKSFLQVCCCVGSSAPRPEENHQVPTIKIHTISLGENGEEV
Excerpt: (§6) IC50 (mcg/ml) alpha-adrenergic receptor blocking action
(§7) in vitro - rat seminal vesicle - 1-norepinephrine
(§8) Test VII is an in vitro measurement of alpha-adrenergic receptor blocking action employing the isolated seminal vesicle of the rat. […] A low value represents high activity.

[7] = test system: mouse; assay: Test IV: spontaneous motor activity, activity cage mouse treated intraperitoneally (CNS depression); type: in vivo; conditions: in words; mouse
Excerpt: as §5, §4

[8] = target: alpha-adrenergic receptors in the cerebral cortex; assay: Test VI: receptor binding assay, tritiated WB-4101 as ligand (alpha-adrenergic blockade); set-up: species or system rat; conditions: for IC50: Test VI, tritiated WB-4101 as ligand, rat cerebral cortex, in excess of 100 nM is considered inactive
Excerpt: (§2) Tests V and VI are receptor binding assays which measure the ability of a compound to prevent the binding of a radiolabeled ligand to specific high affinity sites in brain tissue. According to the state of the art, various ligands have been identified with aspects of CNS function or potential for side effects. The ability of a compound to inhibit labeled ligand binding in vitro is considered to be a reflection of the compound's ability to effect the corresponding CNS function or side effect in vivo.

[9] = test system: mouse; assay: Test III: spontaneous motor activity, activity cage mouse treated orally (CNS depression); conditions: in words; for sedative action (Tests III and IV): oral and intraperitoneal
Excerpt: as §3
mouse treated orally (CNS depression).
as §4

[10] = as above; conditions: in vivo, po
Excerpt: as §3
mouse treated orally (CNS depression).
as §4

[11] = ALD50 for rats; conditions: rat, in vivo, oral dose of the catalepsy test
Method: as §1

[12] = ALD50 in mice; conditions: mouse, in vivo
Method: as §1

[13] = target: T2, dopamine binding, corpus striatum (Rattus norvegicus, UniProt P61169); assay: Test V: receptor binding assay, tritiated spiperone as ligand, dopamine binding assay (psychotropic); conditions: tritiated siperone as ligand, Compound 7: average of two determinations
T2 construct: The corpus striatum of male Sprague-Dawley rats (Charles River Laboratories) is employed as the test tissue; tissue Charles River Laboratories; host or cells: corpus striatum of male Sprague-Dawley rats
T2 sequence (P61169 whole entry): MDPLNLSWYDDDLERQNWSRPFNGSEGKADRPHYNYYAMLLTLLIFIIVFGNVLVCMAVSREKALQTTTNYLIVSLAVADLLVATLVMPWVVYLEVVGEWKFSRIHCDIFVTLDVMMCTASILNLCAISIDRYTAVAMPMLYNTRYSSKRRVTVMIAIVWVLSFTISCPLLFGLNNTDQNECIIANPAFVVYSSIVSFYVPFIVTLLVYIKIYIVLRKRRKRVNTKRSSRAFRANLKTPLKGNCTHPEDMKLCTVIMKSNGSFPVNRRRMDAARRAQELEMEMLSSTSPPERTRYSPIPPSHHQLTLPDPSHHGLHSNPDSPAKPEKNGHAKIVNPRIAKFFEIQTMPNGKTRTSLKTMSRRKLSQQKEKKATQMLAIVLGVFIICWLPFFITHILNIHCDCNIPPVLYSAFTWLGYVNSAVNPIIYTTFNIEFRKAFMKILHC
Excerpt: V. Receptor binding assay, IC50 in nM, tritiated siperone as
as §2
Test V is a dopamine binding assay which reflects neuroleptic activity (Burt, Creese, and Snyder, Molec. Pharmacol. 12:800 (1976); Burt, Creese, and Snyder, Science 196: 326 (1977); Creese, Burt, and Snyder, Science 192: 481 (1976)). The corpus striatum of male Sprague-Dawley rats (Charles River Laboratories) is employed as the test tissue. The radiolabeled ligand is tritiated spiperone. […] Thus, any value less than 1000 nM in Test V represents potential neuroleptic utility.

[14] = target: T1, alpha-adrenergic receptor
Excerpt: as §6, §7, §8

[15] = Test II, fed rat, intraperitoneal
[16] = Test IV, activity cage mouse, intraperitoneal, reflects approximately 50% reduction in spontaneous motor activity, read-out: AED-0.3

Structure (SMILES) | ED50 [4, 16] [mg/kg] | IC50 [6] [nM] | ED50 [10] [mg/kg] | ED50 ([1]; Test I, fasted rat, oral) [mg/kg] | ED50 [3, 15] [mg/kg] | rat catalepsy test result [5] | IC50 [8] [nM] | also measured
O=C1CC2(CCCC2)CC(=O)N1CCCCN1CCN(c2ncccn2)CC1 [Compound No. 6, buspirone] |  |  |  | 48 | 4.3 | inactive |  | ED50 [2]: 92 mg/kg; ED50 ([4]; mouse): 33 mg/kg
COc1cccnc1N1CCN(CCCCN2C(=O)CC3(CCCC3)CC2=O)CC1 [Compound No. 7] |  |  |  | 55 |  | inactive | 65 | LD50 [11]: 200 mg/kg; LD50 [12]: 500 mg/kg; IC50 [13]: 100 nM
COc1cccc(N2CCN(CCCN3C(=O)CC4(CCCC4)CC3=O)CC2)n1 [Compound No. 2] | 7.4 | 182 | 82 |  | > 50 |  | 48 | activity in the conditioned avoidance response test (Test II) ([3]; fed rat, intraperitoneal): very substantially less active; activity by intraperitoneal route (Test IV) relative to oral route (Test III) [7]: several-fold stronger activity; alpha-adrenergic blocking agent (Tests VI and VII) [14]: relatively strong
CC1CN(c2ncccc2C#N)CCN1CCCCN1C(=O)CC2(CCCC2)CC1=O (centres unmarked) [compound 5, 2-[4-[4-(7,9-Dioxo-8-azaspiro[4.5]decan-8-yl)butyl]-3-methyl-1-piperazinyl]pyridine-3-carbonitrile] |  |  |  | 85 |  |  |  | IC50 [13]: 400 nM
CN(C)CCCN1c2ccccc2Sc2ccc(Cl)cc21 [Chlorpromazine, chlorpromazine] | 3.6 |  |  |  |  |  | 31 | ED50 ([1]; Rattus norvegicus, po): 39 mg/kg; ED50 ([3]; Rattus norvegicus): 4.8 mg/kg; ED5 in the rat catalepsy test [5]: 4.1 mg/kg; alpha-adrenergic blocking activity ([6]; in words, rat seminal vesicle): strong
N#Cc1cccnc1N1CCN(CCCCN2C(=O)CC3(CCCC3)CC2=O)CC1 [Compound No. 4, 2-[4-[4-(7,9-Dioxo-8-azaspiro[4.5]decan-8-yl)butyl]-1-piperazinyl]pyridine-3-carbonitrile] |  |  | 97 | 24 |  | inactive | 360 | potency in Test I (neuroleptic action) ([1]; in words, fasted rat, oral): good potency; potency in Test VI (alpha-adrenergic blocking action) ([8]; in words): low potency; potency in Test III (sedative action) ([9]; oral): low potency; sedative action (Tests III and IV) [9]: lack of sedative action

Continued, in another order:

ED50 [4, 16] [mg/kg] | IC50 [6] [nM] | ED50 [10] [mg/kg] | Structure (SMILES) | ED50 ([1]; Test I, fasted rat, oral) [mg/kg] | ED50 [3, 15] [mg/kg] | rat catalepsy test result [5] | IC50 [8] [nM] | also measured
41 | 5830 |  | O=C1CC2(CCCC2)CC(=O)N1CCN1CCN(c2ccccn2)CC1 [compound 1] |  | 22.6 |  |  | activity in the conditioned avoidance response test (Test II) ([3]; fed rat, intraperitoneal): very substantially less active
2.6 | 871 | 10 | O=C1CC2(CCCC2)CC(=O)N1CCCCN1CCN(c2ccccn2)CC1 [Compound No. 3] | 34 | 2.8 |  | 280 | activity by intraperitoneal route (Test IV) relative to oral route (Test III) [7]: several-fold stronger activity; sedative action (Tests III and IV) [9]: high
